Assay results: the supplement of paper PMC11451515

Legend:
NOMO1 = assay: cell viability relative to DMSO control; higher = less cytotoxic; conditions: 48 h
In short: (§1)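 NOMO1 or SEM (500 cells/well) or P12-Ichikawa (1000 cells/well) leukemia cells were adapted for at least four passages in each medium. They were seeded in 1536-well plates (5 μl) and pin-dosed with library compounds in DMSO over an 11-point threefold series, 47 μM to 0.79 nM. CellTiter-Glo One luminescence was read after 48 h at 37°C. Viability is the per-plate percentage relative to DMSO wells, with cell-free wells as background.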

P12-Ichikawa = assay: as above; conditions: 48 h
In short: as §1

Cc1cn([C@H]2C=C[C@@H](CO)O2)c(=O)[nH]c1=O
cell viability [%]
Conditions	HPLM + 10% dialyzed FBS	RPMI 5 mM glucose + 10% FBS	RPMI 5 mM glucose + 10% dialyzed FBS
NOMO1, 0.000781 µM	–	–	106
NOMO1, 0.00234 µM	–	94.3	124
NOMO1, 0.00702 µM	–	100	118
NOMO1, 0.0211 µM	–	106	112
NOMO1, 0.0632 µM	–	98.7	125
NOMO1, 0.19 µM	–	111	123
NOMO1, 0.569 µM	–	111	122
NOMO1, 1.71 µM	–	102	121
NOMO1, 5.12 µM	–	116	113
NOMO1, 15.4 µM	–	120	129
NOMO1, 46.1 µM	–	115	131
P12-Ichikawa, 0.000781 µM	104	100	99.4
P12-Ichikawa, 0.00234 µM	114	111	101
P12-Ichikawa, 0.00702 µM	108	107	110
P12-Ichikawa, 0.0211 µM	108	108	105
P12-Ichikawa, 0.0632 µM	112	105	103
P12-Ichikawa, 0.19 µM	103	104	101
P12-Ichikawa, 0.569 µM	119	112	112
P12-Ichikawa, 1.71 µM	103	115	108
P12-Ichikawa, 5.12 µM	115	108	99.2
P12-Ichikawa, 15.4 µM	116	110	107
P12-Ichikawa, 46.1 µM	108	98	92.8
